Measured values reported in patent publication US20050192279A1, “Pyridazinones as antagonists of alpha4 integrins” (priority 2004, published 2005).

Tests used:
human α4β7 integrin = target: T1, human α4β7 integrin (Homo sapiens, UniProt P13612+P26010); assay: α4β7-K562 Cell Adhesion Assay (α4β7 Mediated Adhesion/MAdCAM-1); format: cell-based; conditions: α4β7-K562 cell adhesion to hMAdCAM-1; read-out: α4β7 IC50
T1 construct: expressed in transfected cells; host or cells: K562 cells, stably transfected
T1 sequence (P13612 34-1032): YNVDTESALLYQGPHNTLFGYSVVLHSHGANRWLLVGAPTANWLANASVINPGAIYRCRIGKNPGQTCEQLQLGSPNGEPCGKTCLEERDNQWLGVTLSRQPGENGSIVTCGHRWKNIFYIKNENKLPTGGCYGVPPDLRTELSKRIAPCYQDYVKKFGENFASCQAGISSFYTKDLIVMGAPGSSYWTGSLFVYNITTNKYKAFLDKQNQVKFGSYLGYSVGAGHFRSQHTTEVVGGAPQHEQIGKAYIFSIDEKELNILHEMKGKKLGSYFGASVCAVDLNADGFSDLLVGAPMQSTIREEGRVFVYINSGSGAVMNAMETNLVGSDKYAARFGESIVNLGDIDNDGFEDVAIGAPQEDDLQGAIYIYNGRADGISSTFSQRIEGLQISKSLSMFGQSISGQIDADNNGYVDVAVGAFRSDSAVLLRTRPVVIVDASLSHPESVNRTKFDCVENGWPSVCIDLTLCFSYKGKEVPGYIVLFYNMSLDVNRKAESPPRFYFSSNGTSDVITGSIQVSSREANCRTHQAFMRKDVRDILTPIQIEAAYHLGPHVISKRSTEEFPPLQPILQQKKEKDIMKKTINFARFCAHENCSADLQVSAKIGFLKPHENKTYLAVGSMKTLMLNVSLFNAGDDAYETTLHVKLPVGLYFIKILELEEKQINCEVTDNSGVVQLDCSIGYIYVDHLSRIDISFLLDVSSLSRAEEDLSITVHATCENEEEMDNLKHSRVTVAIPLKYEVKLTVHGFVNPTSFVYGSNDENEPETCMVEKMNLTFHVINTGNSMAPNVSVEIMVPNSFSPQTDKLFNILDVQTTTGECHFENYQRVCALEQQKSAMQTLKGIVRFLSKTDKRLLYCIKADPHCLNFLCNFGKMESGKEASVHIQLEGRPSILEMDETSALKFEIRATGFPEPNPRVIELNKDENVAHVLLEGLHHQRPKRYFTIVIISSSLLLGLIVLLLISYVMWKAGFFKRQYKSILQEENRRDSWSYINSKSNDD
T1 sequence (P26010 20-798): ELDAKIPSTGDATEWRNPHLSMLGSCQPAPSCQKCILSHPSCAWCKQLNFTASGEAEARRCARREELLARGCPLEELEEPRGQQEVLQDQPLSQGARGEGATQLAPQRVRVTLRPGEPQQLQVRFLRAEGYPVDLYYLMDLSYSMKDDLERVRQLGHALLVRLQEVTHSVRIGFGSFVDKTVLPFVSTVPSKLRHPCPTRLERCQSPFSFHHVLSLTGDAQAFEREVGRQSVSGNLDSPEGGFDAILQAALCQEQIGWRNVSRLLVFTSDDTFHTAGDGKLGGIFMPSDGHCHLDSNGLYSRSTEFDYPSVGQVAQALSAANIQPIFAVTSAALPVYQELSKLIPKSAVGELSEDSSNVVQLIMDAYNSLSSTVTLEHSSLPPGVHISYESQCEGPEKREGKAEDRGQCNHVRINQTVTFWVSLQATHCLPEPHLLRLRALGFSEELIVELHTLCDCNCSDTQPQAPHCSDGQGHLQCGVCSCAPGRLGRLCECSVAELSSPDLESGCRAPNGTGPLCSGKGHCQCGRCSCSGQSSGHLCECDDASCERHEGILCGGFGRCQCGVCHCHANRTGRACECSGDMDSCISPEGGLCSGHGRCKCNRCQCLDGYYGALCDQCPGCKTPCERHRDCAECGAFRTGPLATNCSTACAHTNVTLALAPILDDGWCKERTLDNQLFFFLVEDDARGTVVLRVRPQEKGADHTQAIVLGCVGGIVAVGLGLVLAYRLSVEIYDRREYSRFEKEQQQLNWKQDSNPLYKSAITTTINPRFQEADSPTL
Experimental: α4β7-K562 Cell Adhesion Assay (α4β7 Mediated Adhesion/MAdCAM-1)
M2 anti-FLAG Antibody Coated 96-well plates (Sigma) were coated for 1 hour at 4° C. with 2-8 μl/well recombinant FLAG-hMAdCAM-1 contained in 100 μL of Dulbecco's PBS, pH 7.4, with 1% BSA and 1 mM Mn ^+2 (PBS-BSA-Mn). Plates were washed once with PBS-BSA-Mn. Buffer was removed and compounds to be tested (50 μL) were added at 2× concentration. Stably transfected K562 cells expressing human α4β7 integrin, (50 μL at 2×10^6/mL) that had been labeled with 100 μg/ml carboxymethyl fluorescein diacetate succinimidyl ester (CFDA-SE; Molecular Probes) for 15 min at 37° C. were added to each well and allowed to adhere for 1 h at room temperature. Plates were washed 4× in PBS-BSA-Mn and then cells were lysed for 2 minutes by addtion of 100 μL of PBS without Ca, Mg supplemented with 0.1 M NaOH.

α4β1 = target: T2, α4β1 (Homo sapiens, UniProt P05556+P13612); assay: Ramos Cell Adhesion Assay (α4β1 Mediated Adhesion/VCAM-1); format: cell-based; conditions: Ramos cell adhesion to hVCAM-1; read-out: α4β1 IC50
T2 construct: Ramos Cell Adhesion Assay (α4β1 Mediated Adhesion/VCAM-1); endogenous in cells; host or cells: Ramos cells
Experimental: Ramos Cell Adhesion Assay (α4β1 Mediated Adhesion/VCAM-1)
Immulon 96 well plates (Dynex) were coated with 100 μL recombinant hVCAM-1 at 4.0 μg/mL in 0.05 M NaCO3 buffer pH 9.0 overnight at 4° C. (R&D Systems). Plates were washed 2 times in PBS with 1% BSA and blocked for 1 h @ room temperature in this buffer. PBS was removed and compounds to be tested (50 μL) were added at 2× concentration. Ramos cells, (50 μL at 2×10^6/mL) labeled with 5 μM Calcein AM (Molecular Probes) for 1 h at 37° C., were added to each well and allowed to adhere for 1 h at room temperature. Plates were washed 4× in PBS+1% BSA and cells were lysed for 15 minutes in 100 μL of 1 M Tris pH 8.0 with 1% SDS.

T2 sequence (P05556 21-798, one chain of several): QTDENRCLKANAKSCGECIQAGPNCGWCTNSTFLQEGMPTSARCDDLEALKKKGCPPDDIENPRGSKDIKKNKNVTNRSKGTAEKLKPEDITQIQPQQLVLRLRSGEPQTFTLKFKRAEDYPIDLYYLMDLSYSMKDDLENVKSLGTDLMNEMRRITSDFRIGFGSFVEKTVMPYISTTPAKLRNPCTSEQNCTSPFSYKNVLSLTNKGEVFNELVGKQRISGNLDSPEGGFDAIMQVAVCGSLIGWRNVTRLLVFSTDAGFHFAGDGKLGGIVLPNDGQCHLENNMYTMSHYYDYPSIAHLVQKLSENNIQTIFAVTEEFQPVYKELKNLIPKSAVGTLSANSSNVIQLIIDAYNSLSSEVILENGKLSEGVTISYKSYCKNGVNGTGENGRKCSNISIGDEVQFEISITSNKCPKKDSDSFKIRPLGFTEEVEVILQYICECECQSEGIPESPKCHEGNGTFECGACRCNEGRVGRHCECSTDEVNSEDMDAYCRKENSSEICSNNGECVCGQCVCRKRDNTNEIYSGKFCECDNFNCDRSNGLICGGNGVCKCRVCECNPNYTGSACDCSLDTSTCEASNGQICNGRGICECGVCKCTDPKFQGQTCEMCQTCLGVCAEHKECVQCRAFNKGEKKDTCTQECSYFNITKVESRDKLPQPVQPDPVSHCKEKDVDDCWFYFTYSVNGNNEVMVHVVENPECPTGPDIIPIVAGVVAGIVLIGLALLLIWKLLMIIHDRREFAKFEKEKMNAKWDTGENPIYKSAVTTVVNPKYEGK

Row | Structure (SMILES) | IC50 (human α4β7 integrin) [nM] | IC50 (α4β1) [nM]
1 | Cn1ncc(N)c(-c2ccc(C[C@H](NC(=O)OC(C)(C)C)C(=O)O)cc2)c1=O [Cpd 190] | 979 | > 5000
2 | COc1cnn(C)c(=O)c1-c1ccc(C[C@H](NC(=O)OCc2c(Cl)cccc2Cl)C(=O)O)cc1 [Cpd 204] | 1870 | > 5000
3 | COc1cnn(C)c(=O)c1-c1ccc(C[C@H](NC(=O)c2ccc(CO)cc2)C(=O)O)cc1 [Cpd 170] | 514 | 2810
4 | COc1cc(N)c(Cl)cc1C(=O)N[C@@H](Cc1ccc(-c2c(OC)cnn(C)c2=O)cc1)C(=O)O [Cpd 188] | 922 | > 5000
5 | COc1cnn(C)c(=O)c1-c1ccc(C[C@H](NC(=O)c2cnoc2C)C(=O)O)cc1 [Cpd 147] | 249 | > 5000
6 | COc1cnn(C)c(=O)c1-c1ccc(C[C@H](NC(=O)OC(C)C)C(=O)O)cc1 [Cpd 184] | 813 | > 5000
7 | COc1cnn(C)c(=O)c1-c1ccc(C[C@H](NC(=O)C2(NC(=O)OC(C)(C)C)CC2)C(=O)O)cc1 [Cpd 177] | 163 | > 5000
8 | COc1cnn(C)c(=O)c1-c1ccc(C[C@H](NC(=O)OCC(C)(C)C)C(=O)O)cc1 [Cpd 171] | 536 | > 5000
9 | COc1cnn(CCN2CCOCC2)c(=O)c1-c1ccc(C[C@H](NC(=O)[C@H](NC(C)C)C(C)C)C(=O)O)cc1 [Cpd 179] | 721 | > 5000
10 | COc1cnn(C)c(=O)c1-c1ccc(C[C@H](NC(=O)[C@H](NC(=O)OC(C)(C)C)C(C)C)C(=O)O)cc1 [Cpd 81, (R)-2-(2-tert-Butoxycarbonylamino-3-methyl-butyrylamino)-3-(S)-[4-(5-methoxy-2-methyl-3-oxo-2,3-dihydro-pyridazin-4-yl)-phenyl]-propionic acid] | 39 | 987
11 | COc1cnn(C)c(=O)c1-c1ccc(C[C@H](NC(=O)OCc2cccs2)C(=O)O)cc1 [Cpd 201] | 1440 | > 5000
12 | COc1cnn(C)c(=O)c1-c1ccc(C[C@H]2C(=O)OCN2C(=O)c2c(Cl)cccc2Cl)cc1 [Cpd 114, (S)-4-{4-[3-(2,6-Dichloro-benzoyl)-5-oxo-oxazolidin-4-ylmethyl]-phenyl}-5-methoxy-2-methyl-2H-pyridazin-3-one] | 93 | > 5000
13 | COc1cnn(C)c(=O)c1-c1ccc(C[C@H](NC(=O)C(C)(C)NC(C)C)C(=O)O)cc1 [Cpd 218] | 239 | > 5000
14 | COc1cnn(C)c(=O)c1-c1ccc(C[C@H](NC(=O)C2CCN(C(=O)OC(C)(C)C)CC2)C(=O)O)cc1 [Cpd 202] | 1480 | > 5000
15 | COc1cnn(C)c(=O)c1-c1ccc(C[C@H](NC(=O)[C@@H]2C3CCC(CC3)N2S(=O)(=O)c2ccccc2)C(=O)O)cc1 [Cpd 108] | 72 | 2.7
16 | CN(C)CCOc1cnn(C)c(=O)c1-c1ccc(C[C@H](NC(=O)c2c(Cl)cccc2Cl)C(=O)O)cc1 [Cpd 150] | 271 | 154
17 | COc1cnn(C)c(=O)c1-c1ccc(CC(NC(=O)C(NC(C)C)C(C)C)C(=O)O)cc1 (stereo not drawn) [Cpd 153, 2-(2-Isopropylamino-3-methyl-butyrylamino)-3-[4-(5-methoxy-2-methyl-3-oxo-2,3-dihydro-pyridazin-4-yl)-phenyl]-propionic acid] | 295 | 2050
18 | COc1cnn(CCO)c(=O)c1-c1ccc(C[C@@H](CO)NC(=O)c2c(Cl)cccc2Cl)cc1 [Cpd 194] | 1220 | > 5000
19 | COc1cnn(C)c(=O)c1-c1ccc(C[C@H](NC(=O)CC(C)C)C(=O)O)cc1 [Cpd 124] | 119 | > 1000
20 | COc1cnn(C)c(=O)c1-c1ccc(C[C@H](NC(=O)C2CCN(C(=O)OCc3ccccc3)CC2)C(=O)O)cc1 [Cpd 164] | 457 | > 5000

Next, values leading:

Row | IC50 (human α4β7 integrin) [nM] | IC50 (α4β1) [nM] | Structure (SMILES)
21 | 2 | 305 | CN1CCC(Oc2cnn(C)c(=O)c2-c2ccc(C[C@H](NC(=O)c3c(Cl)cccc3Cl)C(=O)O)cc2)C1 (stereo partly drawn) [Cpd 12]
22 | 38 | > 5000 | COc1cnn(C)c(=O)c1-c1ccc(C[C@H](NC(=O)C2(NC3CCCCC3)CC2)C(=O)O)cc1 [Cpd 40]
23 | 21 | 4220 | CS(=O)(=O)c1ccc(-c2cnn(CC3CC3)c(=O)c2-c2ccc(C[C@H](NC(=O)c3c(Cl)cccc3Cl)C(=O)O)cc2)cc1 [Cpd 65]
24 | 36 | 240 | COc1cnn(C)c(=O)c1-c1ccc(C[C@H](NC(=O)C(NS(=O)(=O)c2ccccc2[N+](=O)[O-])C(C)C)C(=O)O)cc1 (mixture of isomers) [Cpd 77]
25 | 3 | 376 | O=C(N[C@@H](Cc1ccc(-c2c(OCCN3CCOCC3)cnn(CCO)c2=O)cc1)C(=O)O)c1c(Cl)cccc1Cl [Cpd 22]
26 | 1 | 168 | CCOc1cnn(C)c(=O)c1-c1ccc(C[C@H](NC(=O)c2c(Cl)cccc2Cl)C(=O)O)cc1 [Cpd 4]
27 | 53 | 1320 | O=C(N[C@@H](Cc1ccc(-c2c(-n3cc(Br)cn3)cnn(CCO)c2=O)cc1)C(=O)O)c1c(Cl)cccc1Cl [Cpd 94]
28 | 3 | 484 | Cn1ncc(N2CCOCC2)c(-c2ccc(C[C@H](NC(=O)c3c(Cl)cccc3Cl)C(=O)O)cc2)c1=O [Cpd 20]
29 | 11 | 152 | Cn1ncc(OC2CCCCC2)c(-c2ccc(C[C@H](NC(=O)c3c(Cl)cccc3Cl)C(=O)O)cc2)c1=O [Cpd 41]
30 | 9 | > 5000 | COc1cnn(C)c(=O)c1-c1ccc(C[C@H](NC(=O)C2(C(N)=O)CC2)C(=O)O)cc1 [Cpd 38]
31 | 26 | 190 | CN1CCC(Oc2cnn(CCO)c(=O)c2-c2ccc(C[C@H](NC(=O)c3c(Cl)cccc3Cl)C(=O)O)cc2)C1 (stereo partly drawn) [Cpd 72]
32 | 9 | 1310 | C=CCNc1cnn(CC(C)=O)c(=O)c1-c1ccc(C[C@H](NC(=O)c2c(Cl)cccc2Cl)C(=O)O)cc1 [Cpd 36]
33 | 49 | 2380 | COCCOCCOC(=O)[C@H](Cc1ccc(-c2c(OC)cnn(C)c2=O)cc1)NC(=O)c1c(Cl)cccc1Cl [Cpd 91]
